Where a name gives a salt, the structure may show the parent alone. Read-outs that look alike come from different tables or passages of the source.
Key:
PDGFRβ = biological target: T1, PDGFRβ (Homo sapiens, UniProt P09619); assay: Competition binding assay, PDGFRβ Kd
T1 construct: made in house
Summary of the method: (§1)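 First, biotinylated affinity ligands were loaded onto streptavidin magnetic beads and blocked. Kinase, beads and compound were then equilibrated 1 hour at room temperature, washed, and eluted with non-biotinylated ligand. Eluted kinase was measured by qPCR, with Kd fitted from an eleven-point threefold dilution series.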

CSF1R [1] = biological target: T2, CSF1R (Homo sapiens, UniProt P07333); assay: HEK293 CSF1R phosphorylation MSD assay; type: cell-based; parameters: expressed in transfected cells; host or cells: HEK293; conditions: read-out: HEK293 pCSF1R M-CSF MSD:IC50
T2 sequence (P07333 20-972): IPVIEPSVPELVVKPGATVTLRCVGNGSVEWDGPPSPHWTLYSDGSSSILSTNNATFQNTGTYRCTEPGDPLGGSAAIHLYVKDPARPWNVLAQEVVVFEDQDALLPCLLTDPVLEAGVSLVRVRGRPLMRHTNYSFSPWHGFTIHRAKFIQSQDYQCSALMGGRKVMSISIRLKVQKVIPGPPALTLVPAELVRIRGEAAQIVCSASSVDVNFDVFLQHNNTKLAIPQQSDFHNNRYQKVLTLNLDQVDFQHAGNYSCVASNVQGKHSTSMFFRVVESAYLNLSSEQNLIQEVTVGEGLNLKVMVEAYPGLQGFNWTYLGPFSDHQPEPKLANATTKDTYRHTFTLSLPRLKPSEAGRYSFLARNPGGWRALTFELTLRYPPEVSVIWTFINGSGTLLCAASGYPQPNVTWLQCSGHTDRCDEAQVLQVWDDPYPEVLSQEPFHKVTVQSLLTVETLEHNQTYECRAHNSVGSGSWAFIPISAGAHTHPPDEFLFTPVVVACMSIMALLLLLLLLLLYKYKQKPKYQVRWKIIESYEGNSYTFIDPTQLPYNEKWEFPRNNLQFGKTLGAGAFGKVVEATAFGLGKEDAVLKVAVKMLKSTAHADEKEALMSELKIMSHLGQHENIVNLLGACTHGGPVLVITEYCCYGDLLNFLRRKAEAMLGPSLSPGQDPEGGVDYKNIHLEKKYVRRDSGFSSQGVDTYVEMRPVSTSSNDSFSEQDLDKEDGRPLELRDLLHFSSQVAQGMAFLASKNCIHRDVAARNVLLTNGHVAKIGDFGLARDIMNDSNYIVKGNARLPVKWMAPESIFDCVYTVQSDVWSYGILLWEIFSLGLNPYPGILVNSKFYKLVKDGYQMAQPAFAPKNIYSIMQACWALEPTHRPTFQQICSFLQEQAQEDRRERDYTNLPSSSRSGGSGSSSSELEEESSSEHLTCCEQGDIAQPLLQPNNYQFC
Summary of the method: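 HEK293 cells expressing CSF1R-FKBP were pretreated 2 h at 37° C with 9 half-log concentrations of compound (0.5% DMSO final), then stimulated 5 min with 50 ng/mL human M-CSF. Lysates captured on biotin-FK506 plates; phosphotyrosine detected by MSD electrochemiluminescence. IC50 versus DMSO, averaged from duplicate plates.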

[2] = biological target: kinase panel containing either 386 or 392 distinct kinases; assay: Kinase selectivity score S10 from competition binding panel
Method: Competition binding assays used herein were developed, validated and performed as described in Fabian et al., Nature Biotechnology 2005, 23, 329-336. Kinases were produced as fusions to T7 phage (See, Fabian et al. or WO04/015142) or alternatively, the kinases were expressed in HEK-293 cells and subsequently tagged with DNA for PCR detection (See, WO08/005310). For the binding assays, streptavidin-coated magnetic beads were treated with biotinylated affinity ligands for 30 min at room temperature to generate affinity resins. The liganded beads were blocked with excess biotin and washed with blocking buffer (SeaBlock (Pierce), 1% BSA, 0.05% Tween 20, 1 mM DTT) to remove unbound ligand and to reduce non-specific binding. Binding reactions were assembled by combining kinase, liganded affinity beads, and test compounds in 1× binding buffer (20% SeaBlock, 0.17×PBS, 0.05% Tween 20, 6 mM DTT). Test compounds were prepared as 100× stocks in DMSO and diluted into the aqueous environment. Kds were determined using an eleven point threefold serial dilutions. DMSO or control compounds were was added to control assays lacking a test compound. Primary screen assays were performed in polypropylene 384-well plates in a final volume of 20-40 μL, while Kd determinations were performed in polystyrene 96-well plates in a final volume of 135 μL. The assay plates were incubated at room temperature with shaking for 1 hour to allow the binding reactions to reach equilibrium, and the affinity beads were washed extensively with wash buffer (1×PBS, 0.05% Tween 20) to remove unbound protein. The beads were then resuspended in elution buffer (1×PBS, 0.05% Tween […] non-biotinylated affinity ligand) and incubated at room temperature with shaking for 30 min. The kinase concentration in the eluates was measured by quantitative PCR.
A selectivity score (S10) is a quantitative measure of selectivity of a compound against a panel of kinases. An S10 was calculated for a compound by dividing the number of kinases found to have a percent of control (DMSO) less than 10 by the total number of distinct kinases tested (excluding mutant variants). Percent of control (POC) is calculated by subtracting the signal of the control compound (POC=0) from the signal of the test compound and dividing the outcome by the signal of DMSO (POC=100) minus the signal of the control compound. For the compounds disclosed herein, S10 scores were obtained by testing the compounds at 10 μM concentration in a kinase panel containing either 386 or 392 distinct kinases.

CSF1R [3] = biological target: T2, CSF1R; assay: Competition binding assay, CSF1R Kd; parameters: made in house
Summary of the method: as §1

KIT = biological target: T3, KIT (Homo sapiens, UniProt P10721); assay: Competition binding assay, KIT Kd
T3 construct: made in house
T3 sequence (P10721 26-976): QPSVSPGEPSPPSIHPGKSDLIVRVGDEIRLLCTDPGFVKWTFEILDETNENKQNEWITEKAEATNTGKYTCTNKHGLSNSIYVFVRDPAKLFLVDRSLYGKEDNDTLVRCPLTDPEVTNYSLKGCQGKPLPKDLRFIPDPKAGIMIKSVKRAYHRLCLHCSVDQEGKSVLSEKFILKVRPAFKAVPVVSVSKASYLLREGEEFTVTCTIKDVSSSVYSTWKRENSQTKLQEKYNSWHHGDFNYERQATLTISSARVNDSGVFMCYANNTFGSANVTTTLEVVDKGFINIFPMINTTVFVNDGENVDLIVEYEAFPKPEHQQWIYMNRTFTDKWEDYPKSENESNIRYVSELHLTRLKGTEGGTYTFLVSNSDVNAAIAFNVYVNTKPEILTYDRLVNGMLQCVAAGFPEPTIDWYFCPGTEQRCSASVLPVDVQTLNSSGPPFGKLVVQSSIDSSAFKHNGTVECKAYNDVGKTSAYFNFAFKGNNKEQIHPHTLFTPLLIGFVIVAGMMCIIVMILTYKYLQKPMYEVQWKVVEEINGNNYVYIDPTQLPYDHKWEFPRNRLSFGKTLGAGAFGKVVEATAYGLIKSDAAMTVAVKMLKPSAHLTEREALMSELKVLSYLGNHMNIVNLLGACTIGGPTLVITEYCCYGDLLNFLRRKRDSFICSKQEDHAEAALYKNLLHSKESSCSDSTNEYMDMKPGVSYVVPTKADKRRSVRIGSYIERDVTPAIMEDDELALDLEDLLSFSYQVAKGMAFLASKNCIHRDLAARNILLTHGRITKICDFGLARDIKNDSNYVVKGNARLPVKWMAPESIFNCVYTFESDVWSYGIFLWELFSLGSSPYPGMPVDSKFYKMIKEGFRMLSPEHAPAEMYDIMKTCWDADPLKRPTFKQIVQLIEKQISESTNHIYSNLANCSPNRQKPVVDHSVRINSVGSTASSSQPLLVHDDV
Summary of the method: as §1

[4] = HEK293 cells, M-CSF stimulated CSF1R phosphorylation, MSD
[5] = 10 μM, panel of 386 or 392 distinct kinases
[6] = 2 h compound, human M-CSF 50 ng/mL for 5 min
[7] = compounds at 10 μM, 386 or 392 distinct kinases

T1 sequence (P09619 33-1106): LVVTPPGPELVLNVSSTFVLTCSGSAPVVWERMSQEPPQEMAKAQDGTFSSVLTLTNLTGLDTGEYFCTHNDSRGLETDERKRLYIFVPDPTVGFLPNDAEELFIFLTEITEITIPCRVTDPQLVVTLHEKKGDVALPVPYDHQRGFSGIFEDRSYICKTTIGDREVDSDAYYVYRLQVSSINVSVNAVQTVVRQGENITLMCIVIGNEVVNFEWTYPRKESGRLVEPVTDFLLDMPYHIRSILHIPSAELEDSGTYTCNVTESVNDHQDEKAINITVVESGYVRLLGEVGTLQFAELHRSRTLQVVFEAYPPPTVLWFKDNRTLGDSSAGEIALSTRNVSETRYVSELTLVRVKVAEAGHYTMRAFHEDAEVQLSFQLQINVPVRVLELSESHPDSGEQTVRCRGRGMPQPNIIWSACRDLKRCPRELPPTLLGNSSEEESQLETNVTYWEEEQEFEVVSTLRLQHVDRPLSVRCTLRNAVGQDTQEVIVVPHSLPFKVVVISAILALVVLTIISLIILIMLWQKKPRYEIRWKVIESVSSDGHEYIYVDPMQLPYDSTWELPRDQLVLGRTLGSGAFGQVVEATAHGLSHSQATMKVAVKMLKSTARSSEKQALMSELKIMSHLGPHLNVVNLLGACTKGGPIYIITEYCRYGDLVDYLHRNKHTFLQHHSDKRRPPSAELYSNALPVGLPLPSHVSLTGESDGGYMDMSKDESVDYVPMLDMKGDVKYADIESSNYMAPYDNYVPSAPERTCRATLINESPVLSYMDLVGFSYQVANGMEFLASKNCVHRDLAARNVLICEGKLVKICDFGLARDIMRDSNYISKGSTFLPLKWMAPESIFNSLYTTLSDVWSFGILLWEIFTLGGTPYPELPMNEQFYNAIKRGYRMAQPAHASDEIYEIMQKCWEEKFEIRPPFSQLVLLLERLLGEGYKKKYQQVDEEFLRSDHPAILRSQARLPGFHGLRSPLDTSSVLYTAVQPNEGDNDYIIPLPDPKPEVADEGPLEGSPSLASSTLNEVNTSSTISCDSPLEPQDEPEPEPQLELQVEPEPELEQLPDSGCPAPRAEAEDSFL

| Kd (PDGFRβ; competition binding) | IC50 (CSF1R [1]; [4]) | Kinase specificity S(10) [2, 5] | Kd (CSF1R [3]; competition binding) | Kd (KIT; competition binding) | Kd (PDGFRβ) | IC50 (CSF1R [1]; [6]) | Kinase specificity S(10) [2, 7] | Kd (CSF1R [3]) | Kd (KIT) | SMILES |
| --- | --- | --- | --- | --- | --- | --- | --- | --- | --- | --- |
| 50 to 500 nM | ≤ 50 nM | A (A≤0.01) | ≤ 5 nM | 100 to 500 nM | – | – | – | – | – | N#CCOc1ccc2c(c1)ncn2Cc1ccc2nc(N[C@@H]3CCCC[C@H]3O)sc2c1 [Example 196, 2-((1-((2-(((1R,2R)-2-hydroxycyclohexyl)amino)benzo[d]thiazol-6-yl)methyl)-1H-benzo[d]imidazol-5-yl)oxy)acetonitrile] |
| 50 to 500 nM | 50 to 200 nM | A (A≤0.01) | 5 to 20 nM | 100 to 500 nM | – | – | – | – | – | CON=C(C)c1ccn2c(Cc3ccc4nc(N[C@@H]5CCCC[C@H]5O)sc4c3)cnc2c1 [Example 204, 1-(3-((2-(((1R,2R)-2-hydroxycyclohexyl)amino)benzo[d]thiazol-6-yl)methyl)imidazo[1,2-a]pyridin-7-yl)ethanone O-methyl oxime] |
| ≤ 50 nM | 50 to 200 nM | B (0.01<B≤0.02) | 5 to 20 nM | ≤ 100 nM | – | – | – | – | – | C=Cc1cc(F)c2c(c1)ncn2Cc1ccc2nc(N[C@@H]3CCCC[C@H]3O)sc2c1 [Example 207, (1R,2R)-2-((6-((7-fluoro-5-vinyl-1H-benzo[d]imidazol-1-yl)methyl)benzo[d]thiazol-2-yl)amino)cyclohexanol] |
| – | – | – | – | – | ≤ 50 nM | ≤ 50 nM | B (0.01<B≤0.02) | 5 to 20 nM | ≤ 100 nM | CCc1cnc2c(c1)ncn2Cc1ccc2nc(N[C@@H]3CCCC[C@H]3O)sc2c1 [Example 102, (1R,2R)-2-((6-((6-ethyl-3H-imidazo[4,5-b]pyridin-3-yl)methyl)benzo[d]thiazol-2-yl)amino)cyclohexanol] |
| ≤ 50 nM | 50 to 200 nM | A (A≤0.01) | 5 to 20 nM | ≤ 100 nM | – | – | – | – | – | O[C@@H]1CCCC[C@H]1Nc1nc2ccc(Cn3cnc4cc(C(F)(F)F)cnc43)cc2s1 [Example 212, (1R,2R)-2-((6-((6-(trifluoromethyl)-3H-imidazo[4,5-b]pyridin-3-yl)methyl)benzo[d]thiazol-2-yl)amino)cyclohexanol] |
| 50 to 500 nM | > 500 nM | A (A≤0.01) | 20 to 50 nM | > 2000 nM | – | – | – | – | – | Nc1nccn(Cc2ccc3nc(N[C@@H]4CCCC[C@H]4O)sc3c2)c1=O [Example 220, 3-amino-1-((2-(((1R,2R)-2-hydroxycyclohexyl)amino)benzo[d]thiazol-6-yl)methyl)pyrazin-2(1H)-one acetate salt] |

Continued, molecule first:

| SMILES | Kd (PDGFRβ; competition binding) | IC50 (CSF1R [1]; [4]) | Kinase specificity S(10) [2, 5] | Kd (CSF1R [3]; competition binding) | Kd (KIT; competition binding) | Kd (PDGFRβ) | IC50 (CSF1R [1]; [6]) | Kinase specificity S(10) [2, 7] | Kd (CSF1R [3]) | Kd (KIT) |
| --- | --- | --- | --- | --- | --- | --- | --- | --- | --- | --- |
| O[C@@H]1CCCC[C@H]1Nc1nc2ccc(Cn3cnc4cc(Cl)cnc43)cc2s1 [Example 55, (1R,2R)-2-((6-((6-chloro-3H-imidazo[4,5-b]pyridin-3-yl)methyl)benzo[d]thiazol-2-yl)amino)cyclohexanol] | – | – | – | – | – | ≤ 50 nM | ≤ 50 nM | B (0.01<B≤0.02) | 5 to 20 nM | ≤ 100 nM |
| COc1cc2ncn(Cc3ccc4nc(N[C@@H]5CCCC[C@H]5O)sc4c3)c2cc1C#N [Example 53, 1-((2-(((1R,2R)-2-hydroxycyclohexyl)amino)benzo[d]thiazol-6-yl)methyl)-5-methoxy-1H-benzo[d]imidazole-6-carbonitrile] | – | – | – | – | – | 50 to 500 nM | ≤ 50 nM | B (0.01<B≤0.02) | 5 to 20 nM | 100 to 500 nM |
| O[C@@H]1CCCC[C@H]1Nc1nc2ccc(Cn3cnc4cc(C5CC5)cnc43)cc2s1 [Example 45, (1R,2R)-2-((6-((6-cyclopropyl-3H-imidazo[4,5-b]pyridin-3-yl)methyl)benzo[d]thiazol-2-yl)amino)cyclohexanol] | – | – | – | – | – | ≤ 50 nM | ≤ 50 nM | B (0.01<B≤0.02) | ≤ 5 nM | ≤ 100 nM |
| CS(=O)(=O)c1cnc2c(c1)ncn2Cc1ccc2nc(N[C@@H]3CCCC[C@H]3O)sc2c1 [Example 74, (1R,2R)-2-((6-((6-(methylsulfonyl)-3H-imidazo[4,5-b]pyridin-3-yl)methyl)benzo[d]thiazol-2-yl)amino)cyclohexanol] | – | – | – | – | – | 50 to 500 nM | 50 to 200 nM | B (0.01<B≤0.02) | 5 to 20 nM | 100 to 500 nM |
| COc1cc2ncn(Cc3ccc4nc(N[C@@H]5CCCC[C@H]5O)oc4c3)c2cc1OC [Example 34, (1R,2R)-2-((6-((5,6-dimethoxy-1H-benzo[d]imidazol-1-yl)methyl)benzo[d]oxazol-2-yl)amino)cyclohexanol] | – | – | – | – | – | 50 to 500 nM | 50 to 200 nM | C (C>0.02) | 5 to 20 nM | 100 to 500 nM |
| OC[C@@H](Nc1nc2ccc(Cn3cnc4cccnc43)cc2s1)C1CCCCC1 [Example 63, (S)-2-((6-((3H-imidazo[4,5-b]pyridin-3-yl)methyl)benzo[d]thiazol-2-yl)amino)-2-cyclohexylethanol] | – | – | – | – | – | ≤ 50 nM | 50 to 200 nM | C (C>0.02) | 5 to 20 nM | ≤ 100 nM |
| O[C@@H]1CCCC[C@H]1Nc1nc2ccc(Cn3cnc4cc(N5CCOCC5)cnc43)cc2s1 [Example 97, (1R,2R)-2-((6-((6-morpholino-3H-imidazo[4,5-b]pyridin-3-yl)methyl)benzo[d]thiazol-2-yl)amino)cyclohexanol] | – | – | – | – | – | ≤ 50 nM | ≤ 50 nM | B (0.01<B≤0.02) | 5 to 20 nM | ≤ 100 nM |
| O[C@@H]1Cc2ccccc2[C@H]1Nc1nc2ccc(Cn3cnc4cccnc43)cc2s1 [Example 46, (1R,2R)-1-((6-((3H-imidazo[4,5-b]pyridin-3-yl)methyl)benzo[d]thiazol-2-yl)amino)-2,3-dihydro-1H-inden-2-ol] | – | – | – | – | – | ≤ 50 nM | 50 to 200 nM | B (0.01<B≤0.02) | ≤ 5 nM | 100 to 500 nM |
| ON=C1CCCC[C@H]1Nc1nc2ccc(Cn3cnc4cccnc43)cc2s1 [Example 58, (R)-2-((6-((3H-imidazo[4,5-b]pyridin-3-yl)methyl)benzo[d]thiazol-2-yl)amino)cyclohexanone oxime] | – | – | – | – | – | ≤ 50 nM | 50 to 200 nM | B (0.01<B≤0.02) | ≤ 5 nM | ≤ 100 nM |
| COc1cc2ncn(Cc3ccc4nc(N[C@@H]5CCCC[C@H]5O)sc4c3)c2cc1Br [Example 47, (1R,2R)-2-((6-((6-bromo-5-methoxy-1H-benzo[d]imidazol-1-yl)methyl)benzo[d]thiazol-2-yl)amino)cyclohexanol] | – | – | – | – | – | 50 to 500 nM | 50 to 200 nM | B (0.01<B≤0.02) | 5 to 20 nM | ≤ 100 nM |
| O[C@@H]1Cc2ccccc2[C@H]1Nc1nc2ccc(Cn3cnc4cccnc43)cc2o1 [Example 57, (1R,2R)-1-((6-((3H-imidazo[4,5-b]pyridin-3-yl)methyl)benzo[d]oxazol-2-yl)amino)-2,3-dihydro-1H-inden-2-ol] | – | – | – | – | – | ≤ 50 nM | 50 to 200 nM | C (C>0.02) | ≤ 5 nM | ≤ 100 nM |
| C=Cc1cnc2c(c1)ncn2Cc1ccc2nc(N[C@@H]3CCCC[C@H]3O)sc2c1 [Example 98, (1R,2R)-2-((6-((6-vinyl-3H-imidazo[4,5-b]pyridin-3-yl)methyl)benzo[d]thiazol-2-yl)amino)cyclohexanol] | – | – | – | – | – | ≤ 50 nM | ≤ 50 nM | B (0.01<B≤0.02) | 5 to 20 nM | ≤ 100 nM |
